Experimental data as given in US5175266A, “Nucleosides and oligonucleosides with a phosphate-free internucleoside backbone and process for preparing the same” (Triplex Pharmaceutical Corporation, priority 1991, dated 1992).

Assay: Chemical stability of the amide linkage (hydrolysis in NH4OH)
Type: physicochemical
Details: 30% NH4OH, 55° C., 24 h, assessed by TLC
Description: To assess the chemical stability of the amide linkages in the synthesized compounds, the monomer (6) (T'gly) was subjected to hydrolysis in 30% NH4 OH at 55° C. for 24 h. […] Thus, the amide bond appears to be stable with respect to general base catalyzed hydrolysis. From a practical perspective, this stability to 30% NH4 OH at 55° C. confirms that the amide linkage can withstand the hydrolysis required to remove base protecting groups which are necessary for polymerization of A,C and G homologues.

SMILES: Cc1cn([C@H]2C[C@H](N)[C@@H](C(=O)NCC(=O)O)O2)c(=O)[nH]c1=O [Compound 6, 1-(3-amino-2,3-dideoxy-β-D-erythro-pentofuranosyl-5-glycine uronate)thymine]
- hydrolysis of the amide linkage: no hydrolysis of the amide linkage was detected
